Data on 33 compounds can be found in patent publication US6472526B1, “Imidazole derivatives having an inhibitory activity for farnesyl transferase and process for preparation thereof” (LG Chemical Ltd., priority 1997, dated 2002).

In assay [1] the target is T1, Ras farnesyl transferase (Rattus norvegicus, UniProt Q02293+Q04631).
T1 construct: endogenous in cells; host or cells: Rat2 fibroblasts transformed with H-Ras or with an H-Ras/K-Ras C-terminus fusion
Briefly: In vivo (cellular) inhibitory activity for Ras farnesyl transferase, Rat2 cell line transformed with fused protein of H-Ras substituted with polybasic lysine domain at C-terminus of K-Ras. It counts as cell-based. The essentials: (§1)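 Farnesylated versus unfarnesylated Ras bands were measured by autoradiography after Y13-259 immunoprecipitation and SDS-PAGE, giving CIC50 as 50% inhibition of farnesylation. Rat2 cells expressing H-Ras or an H-Ras fusion with K-Ras polybasic C-terminus got compound (1% DMSO), then [35S]methionine from 4 h onward for 20 h.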

Assay [2] concerns the target T1, Ras farnesyl transferase. Briefly: In vivo (cellular) inhibitory activity for Ras farnesyl transferase, Rat2 cell line which expresses C-Harvey-Ras protein. The class given is cell-based. The gist of the method:
as §1

For assay [3], the target named is T2, Ras farnesyl transferase (Homo sapiens, UniProt P49354+P49356).
T2 construct: made in house
Put plainly: In vitro inhibitory activity for Ras farnesyl transferase, H-Ras substrate. The class given is biochemical.

Assay [4] addresses T2, Ras farnesyl transferase. Put plainly: In vitro inhibitory activity for Ras farnesyl transferase, K-Ras substrate. The class given is biochemical.
Setting [5] is: Rat2 cell line transformed with H-Ras fused with polybasic lysine domain of K-Ras C-terminus, concentration inhibiting 50% of farnesyl bonding, read-out: K-Ras CIC50.
Where [6] appears, read: Rat2 cell line expressing C-Harvey-Ras, concentration inhibiting 50% of farnesyl bonding of Ras protein, read-out: H-Ras CIC50.
[7] abbreviates: recombinant farnesyl transferase 4.5 nM, Ras substrate protein 1.5 μM, tritium-farnesylpyrophosphate 0.15 μM, 30 minutes at 37° C., read-out: H-Ras IC50.
Setting [8] is: in vitro farnesyl transferase assay, K-Ras, read-out: K-Ras IC50.

pIC50: −log10 of the molar value.

As to `O=C(c1cccc(Br)c1)c1cn(Cc2c[nH]cn2)cc1-c1cccc2ccccc12` [Compound 48], the pIC50 was 4.00 to 5.00 at Ras farnesyl transferase [1] (setting [5]), 4.30 to 6.00 at Ras farnesyl transferase [2] (setting [6]), 6.82 at Ras farnesyl transferase [3] (setting [7]) and 5.00 at Ras farnesyl transferase [4] (setting [8]).
For `O=C(c1ccc(Br)cc1)c1cn(Cc2c[nH]cn2)cc1-c1cccc2ccccc12` [Compound 49] the same measures were above 4.70, 6.15, 7.52 and 6.31.
`Cc1ccccc1C(=O)c1cn(Cc2c[nH]cn2)cc1-c1cccc2ccccc12` [Compound 50]: the pIC50 is 4.00 to 5.00 at Ras farnesyl transferase [1] (setting [5]), 4.30 to 6.00 at Ras farnesyl transferase [2] (setting [6]), 6.82 at Ras farnesyl transferase [3] (setting [7]) and 5.00 to 7.00 at Ras farnesyl transferase [4] (setting [8]).
In the case of `Cc1cccc(C(=O)c2cn(Cc3c[nH]cn3)cc2-c2cccc3ccccc23)c1` [Compound 51], the pIC50 at Ras farnesyl transferase [1] (setting [5]) is 4.00 to 5.00; on Ras farnesyl transferase [2] (setting [6]), 4.30 to 6.00; on Ras farnesyl transferase [3] (setting [7]), 6.57; at Ras farnesyl transferase [4] (setting [8]) it was 5.00 to 7.00.
In the same order, the values of `Cc1ccc(C(=O)c2cn(Cc3c[nH]cn3)cc2-c2cccc3ccccc23)cc1` [Compound 52] are 4.00 to 5.00, 4.30 to 6.00, 7.15 and 5.00 to 7.00.
In the case of `COc1cccc(C(=O)c2cn(Cc3c[nH]cn3)cc2-c2cccc3ccccc23)c1` [Compound 53], the pIC50 is 4.00 to 5.00 on Ras farnesyl transferase [1] (setting [5]), 4.30 to 6.00 on Ras farnesyl transferase [2] (setting [6]), 6.52 at Ras farnesyl transferase [3] (setting [7]) and 5.00 to 7.00 at Ras farnesyl transferase [4] (setting [8]).
In the same order, the values of `COc1ccc(C(=O)c2cn(Cc3c[nH]cn3)cc2-c2cccc3ccccc23)cc1` [Compound 54] are 4.00 to 5.00, 4.30 to 6.00, 6.41 and 5.00 to 7.00.
For `O=C(c1ccccc1Cl)c1cn(Cc2c[nH]cn2)cc1-c1cccc2ccccc12` [Compound 55] the same measures were 4.00 to 5.00, 4.30 to 6.00, 7.22 and 5.00 to 7.00.
On to `O=C(c1ccc(Cl)cc1)c1cn(Cc2c[nH]cn2)cc1-c1cccc2ccccc12` [Compound 56], for which the pIC50 on Ras farnesyl transferase [1] (setting [5]) is 4.00 to 5.00; at Ras farnesyl transferase [2] (setting [6]), 4.30 to 6.00; at Ras farnesyl transferase [3] (setting [7]), 7.40; on Ras farnesyl transferase [4] (setting [8]), 5.00 to 7.00.
For `O=C(c1ccc(Cl)cc1Cl)c1cn(Cc2c[nH]cn2)cc1-c1cccc2ccccc12` [Compound 57] the same measures were 4.00 to 5.00, 4.30 to 6.00, 7.42 and 5.00 to 7.00.
For `O=C(c1ccc(F)cc1)c1cn(Cc2c[nH]cn2)cc1-c1cccc2ccccc12` [Compound 58] the same measures were 4.00 to 5.00, 4.30 to 6.00, 7.60 and 5.00 to 7.00.
In the same order, the values of `O=C(c1ccc(F)cc1F)c1cn(Cc2c[nH]cn2)cc1-c1cccc2ccccc12` [Compound 59] are 4.00 to 5.00, 4.30 to 6.00, 6.24 and 5.00 to 7.00.
As for `N#Cc1ccc(C(=O)c2cn(Cc3c[nH]cn3)cc2-c2cccc3ccccc23)cc1` [Compound 60], the pIC50 at Ras farnesyl transferase [1] (setting [5]) was 4.00 to 5.00; at Ras farnesyl transferase [2] (setting [6]) it was 4.30 to 6.00; at Ras farnesyl transferase [3] (setting [7]), 6.70; on Ras farnesyl transferase [4] (setting [8]), 5.00 to 7.00.
Regarding `CSCc1ccc(C(=O)c2cn(Cc3c[nH]cn3)cc2-c2cccc3ccccc23)cc1` [Compound 61], the pIC50 is 4.00 to 5.00 on Ras farnesyl transferase [1] (setting [5]), 4.30 to 6.00 on Ras farnesyl transferase [2] (setting [6]), 6.13 at Ras farnesyl transferase [3] (setting [7]) and 5.00 to 7.00 on Ras farnesyl transferase [4] (setting [8]).
Take `CSCCc1ccc(C(=O)c2cn(Cc3c[nH]cn3)cc2-c2cccc3ccccc23)cc1` [Compound 62]: the pIC50 at Ras farnesyl transferase [1] (setting [5]) was 4.00 to 5.00; on Ras farnesyl transferase [2] (setting [6]), 4.30 to 6.00; at Ras farnesyl transferase [3] (setting [7]), 7.17; at Ras farnesyl transferase [4] (setting [8]), 5.00 to 7.00.
For `CSCCOc1ccc(C(=O)c2cn(Cc3c[nH]cn3)cc2-c2cccc3ccccc23)cc1` [Compound 63] the same measures were 4.00 to 5.00, 4.30 to 6.00, 6.64 and 5.00 to 7.00.
In the same order, the values of `CSCc1cccc(C(=O)c2cn(Cc3c[nH]cn3)cc2-c2cccc3ccccc23)c1` [Compound 64] are 4.00 to 5.00, 4.30 to 6.00, 6.80 and 5.00 to 7.00.
Consider `O=C(c1cccc(-c2ccccc2)c1)c1cn(Cc2c[nH]cn2)cc1-c1cccc2ccccc12` [Compound 65], for which the pIC50 is 4.00 to 5.00 on Ras farnesyl transferase [1] (setting [5]), 4.30 to 6.00 at Ras farnesyl transferase [2] (setting [6]), 6.38 on Ras farnesyl transferase [3] (setting [7]) and 5.00 to 7.00 at Ras farnesyl transferase [4] (setting [8]).
On to `O=C(c1ccc(-c2ccccc2)cc1)c1cn(Cc2c[nH]cn2)cc1-c1cccc2ccccc12` [Compound 66], for which the pIC50 at Ras farnesyl transferase [1] (setting [5]) is 4.00 to 5.00; at Ras farnesyl transferase [2] (setting [6]), 4.30 to 6.00; at Ras farnesyl transferase [3] (setting [7]), 6.92; on Ras farnesyl transferase [4] (setting [8]), 5.00 to 7.00.
For `O=C(c1ccc(Oc2ccccc2)cc1)c1cn(Cc2c[nH]cn2)cc1-c1cccc2ccccc12` [Compound 67] the same measures were below 4.30, 5.52, 7.70 and 5.00 to 7.00.
In the same order, the values of `O=C(c1ccc(Cc2ccccc2)cc1)c1cn(Cc2c[nH]cn2)cc1-c1cccc2ccccc12` [Compound 68] are 4.00 to 5.00, 4.30 to 6.00, 6.92 and 5.00 to 7.00.
On to `O=C(c1cn(Cc2c[nH]cn2)cc1-c1cccc2ccccc12)c1cccc2ccccc12` [Compound 69], for which the pIC50 is 4.00 to 5.00 at Ras farnesyl transferase [1], 4.30 to 6.00 on Ras farnesyl transferase [2], 6.26 on Ras farnesyl transferase [3] and 5.00 to 7.00 on Ras farnesyl transferase [4].
Consider `Cc1ccc(C(=O)c2cn(Cc3c[nH]cn3)cc2-c2cn(C)c3ccccc23)cc1` [Compound 70], for which the pIC50 at Ras farnesyl transferase [1] (setting [5]) is 4.00 to 5.00; at Ras farnesyl transferase [2] (setting [6]) it was 4.30 to 6.00; at Ras farnesyl transferase [3] (setting [7]) it was 6.68; on Ras farnesyl transferase [4] (setting [8]) it was 5.00 to 7.00.
As for `CCCCc1c(-c2cccc3ccccc23)c(C(=O)c2ccc(Cl)cc2Cl)cn1Cc1c[nH]cn1` [Compound 71], the pIC50 on Ras farnesyl transferase [1] (setting [5]) was 4.00 to 5.00; at Ras farnesyl transferase [2] (setting [6]) it was 4.30 to 6.00; on Ras farnesyl transferase [3] (setting [7]), 6.92; at Ras farnesyl transferase [4] (setting [8]) it was 5.00 to 7.00.
In the same order, the values of `O=C(c1ccc(Cl)cc1Cl)c1cn(Cc2c[nH]cn2)c(Cc2ccccc2)c1-c1cccc2ccccc12` [Compound 72] are 4.00 to 5.00, 4.30 to 6.00, 7.30 and 5.00 to 7.00.
Take `N#Cc1ccc(Cn2cncc2Cn2cc(C(=O)c3cccs3)c(-c3cccc4ccccc34)c2)cc1` [Compound 73, 1-[1-(4-Cyanobenzyl)-1H-imidazol-5-yl]methyl-4-(naphthalen-1-yl)-3-(thiophen-2-yl)carbonyl-1H-pyrrole]: the pIC50 at Ras farnesyl transferase [1] (setting [5]) is below 5.00; on Ras farnesyl transferase [2] (setting [6]), 6.70; at Ras farnesyl transferase [3] (setting [7]), 8.70; at Ras farnesyl transferase [4] (setting [8]), 7.70.
For `N#Cc1ccc(Cn2cncc2Cn2cc(C(=O)c3ccsc3)c(-c3cccc4ccccc34)c2)cc1` [Compound 74] the same measures were 4.00 to 5.00, 6.00 to 7.00, 8.00 and 7.00 to 8.00.
For `N#Cc1ccc(Cn2cncc2Cn2cc(C(=O)c3cccc(Br)c3)c(-c3cccc4ccccc34)c2)cc1` [Compound 76] the same measures were 4.00 to 5.00, 6.00 to 7.00, 8.40 and 5.00 to 7.00.
For `Cn1cnc(Cn2cc(C(=O)c3ccc(F)cc3)c(-c3cccc4ccccc34)c2)c1` [Compound 78, 3-(4-Fluorobenzoyl)-1-(1-methyl-1H-imidazol-4-yl)methyl-4-(naphthalen-1-yl)-1H-pyrrole] the same measures were 4.00 to 5.00, 7.00, 8.35 and 6.70.
For `Cn1cnc(Cn2cc(C(=O)c3ccc(Oc4ccccc4)cc3)c(-c3cccc4ccccc34)c2)c1` [Compound 79, 1-(1-Methyl-1H-imidazol-4-yl)methyl-4-(naphthalen-1-yl)-3-(4-phenoxybenzoyl)-1H-pyrrole], the pIC50 at Ras farnesyl transferase [1] (setting [5]) was below 4.30; at Ras farnesyl transferase [2] (setting [6]) it was 7.00; at Ras farnesyl transferase [3] (setting [7]) it was 8.30; at Ras farnesyl transferase [4] (setting [8]), 7.00.
In the case of `COC(=O)[C@H](CCSC)NC(=O)c1cn(Cc2c[nH]cn2)cc1-c1cccc2ccccc12` [Compound 80, (S)-1-(1H-Imidazol-4-yl)methyl-3-[N-(1-methoxycarbonyl-3-methylthio)propyl]carbamoyl-4-(naphthalen-1-yl)-1H-pyrrole], the pIC50 is 4.00 to 5.00 at Ras farnesyl transferase [1] (setting [5]), 4.30 to 6.00 at Ras farnesyl transferase [2] (setting [6]), 5.09 on Ras farnesyl transferase [3] (setting [7]) and 5.00 to 7.00 at Ras farnesyl transferase [4] (setting [8]).
For `CSCC[C@H](NC(=O)c1cn(Cc2c[nH]cn2)cc1-c1cccc2ccccc12)C(=O)O` [Compound 81, (S)-3-[N-(1-Hydroxycarbonyl-3-methylthio)propyl]carbamoyl-1-(1H-imidazol-4-yl)methyl-4-(naphthalen-1-yl)-1H-pyrrole] the same measures were 4.00 to 5.00, 4.30 to 6.00, 6.17 and 5.00 to 7.00.
In the same order, the values of `O=C(Nc1ccccc1)c1cn(Cc2c[nH]cn2)cc1-c1cccc2ccccc12` [Compound 82] are 4.00 to 5.00, 4.30 to 6.00, 6.40 and 5.00 to 7.00.
